Data on one compound can be found in patent publication US20080131432A1, “Method of treating the chemotoxic effects of chemotherapeutic drugs on brain tissue” (University of Kentucky Research Foundation, priority 2005, published 2008).

Entries after “also recorded” stand apart in the source; their conditions may differ. Structures can show the parent of a compound that is named as a salt.

Data set [1] can be described thus: Localization of ADR in brain tissue (inverted fluorescence microscope). Format: in vivo. As to conditions: mouse brain 3 hours after 20 mg/kg ADR i.p.; hydrochloride. The method, then:
Eight-week-old male B6C3 mice (25-30 g) were kept under standard conditions. The mice were injected in a single intraperitoneal (i.p.) dose of 20 mg/kg adriamycin (Doxorubicin hydrochloride, […] Sicor Phamaceuticals, Inc., Irvine, Calif.), or the same volume of saline as control for 3 hours. […] Controls consisted of anti-TNF α antibody alone, or saline in the same total volume. All results were obtained from at least three separate experiments. Mice were euthanized by the i.p. injection of 65 mg/kg of nembutal (Sodium pentobarbital, Abbott Laboratories, North Chicago, Ill.), and were perfused via cardiac puncture initially with 0.1 M phosphate buffered saline (PBS), pH 7.4, and subsequent fixation with 4% paraformaldehyde. […] The sections were prepared for immunohistochemistry and detection of ADR. ADR in brain tissue slices was directly visualized using an inverted fluorescence microscope, FIG. 1 (excitation filter 550 nm, and barrier filter 590 nm). Photomicrographs were taken with an Olympus MagnaFire digital camera (Olympus, America, Melville, N.Y.).

Another data set relates to TNF α. Description: TNF α levels in serum (mouse TNF-α ELISA). Format: in vivo. The procedure:
Mice were treated with 20 mg/kg ADR or saline as control. Blood samples were collected at 1, 3, 6, 9, 24 hours and allowed to clot at 2-8° C. overnight. Serum samples were used to measure TNF α levels, according to the mouse enzyme-linked immunosorbent assay following the manufacturers' instructions (mouse TNF-α/TNFSF1A immunoassay, R&D Systems, Minneapolis, MN). The TNF α concentration in the sample was calculated from a recombinant mouse TNF α standard curve. The minimum detection limit is typically less than 5.1 pg/mL.
8-week-old male B6C3 mice (25-30 g) were kept under standard conditions. Mice were injected with a single intraperitoneal (i.p.) treatment with adriamycin (doxorubicin hydrochloride, 20 mg/kg), TNF-α, anti-mouse TNF-antibody (40 ng/kg), dipropylenetriamine NONOate (DPTA NONOate, […]), lipopolysaccharide (LPS 1 mg/kg), NG-nitro-L-arginine-methyl esther (L-NAME, 10 mg/kg) or pre-immune IgG.
Mice were treated with 20 mg/kg ADR, TNF-α, anti-mouse TNF-antibody, dipropylenetriamine NONOate, lipopolysaccharide, NG-nitro-L-arginine-methyl esther or pre-immune IgG, as well as saline as control. Blood samples were collected at 3 hours after ADR treatment and allowed to clot at 2-8° C. overnight. Serum samples were used to measure TNF levels, according to the mouse enzyme-linked immunosorbent assay following the manufacturers' instructions (mouse TNF-α/TNFSF1A immunoassay, R&D Systems, Minneapolis, Minn.). The TNF concentration in the sample was calculated from a recombinant mouse TNF standard curve. The minimum detection limit is typically less than 5.1 pg/mL.

Data set [2] relates to mitochondrial respiration complex II. Briefly: Brain mitochondrial respiration, complex II (succinate). Format: in vivo, mouse. As to conditions: succinate as substrate, after ADR.
Protocol: Mice were perfused via cardiac puncture with cold mitochondrial isolation buffer, the brain promptly removed, the cerebellum dissected away, and mitochondria immediately isolated from the freshly brain by a modification of the method described by Mattiazzi et al. (2002). Brain mitochondria were isolated in cold mitochondrial isolation buffer, containing 0.07 M sucrose, 0.22 M mannitol, 20 mM HEPES, 1 mM EGTA, and 1% bovine serum albumin, pH 7.2. Tissues were homogenized with a Dounce homogenizer and centrifuged at 1,500×g at 4° C. for 5 minutes before transferring the supernatant. The pellets were resuspended and centrifuged at 1,500×g at 4° C. for 5 minutes. […] Protein concentration of isolated mitochondria was determined by the Bradford assay (Bradford, 1976). […]
Mitochondrial respiration was determined using Clark-type polarographic oxygen sensors (Hansatech Instruments, Kings Lynn, Norfolk, UK) to measure the rate of oxygen consumption. […] Oxygen consumption was measured with either pyruvate (10 mM) plus malate (10 mM) or succinate (10 mM) as substrates for respiration from complex I or complex II in the absence of exogenous ADP (state II) and after addition of 300 mM ADP (state III respiration). […] Respiration control ratios (RCR) were calculated as the ratios of state III and state II respiration as described previously by Estabrook (1967). […]
A further data set concerns iNOS mRNA. Briefly: iNOS mRNA expression in brain tissues (RT-PCR). It counts as in vivo, mouse. As to conditions: wild-type mice, 3 hours after treatment, vs saline controls. The procedure: At 3 hours after treatment, mice were anesthetized and perfused via cardiac puncture with 0.1 M PBS, pH 7.4. The MRNA was isolated using the Micro-FastTrack 2.0 Kit (Invitrogen, Groningen, Netherlands) according to the manufacturer's instructions. The purified MRNA (5 μg) was subjected to reverse-transcription into first strand cDNA in each 20 μL of reaction mixture using the SuperScript III First-Strand Synthesis System for RT-PCR (Invitrogen) according to the manufacturer's instruction. A 25 μL PCR reaction contained 5 μL first strand cDNA, 0.1 U Taq DNA polymerase (Invitrogen), 10 mM 10×PCR buffer, 1.5 mM MgCl2, 2.5 mM dNTP and 10 pmol of each specific primer. PCR samples were subjected to the following conditions: 35 cycles for iNOS (94° C.: 1 minute; 65° C.: 1 minute; 72° C.: 1 minute), 32 cycles for β-actin (94° C.: […]; 55° C.: 30 s; 72° C.: 10 minutes), on a thermocycle (Perkin-Elmer). The primers with the target gene sequences were synthesized by Invitrogen. The primer sequence iNOS was 5′-CTGATGGTCAAGATCCAG-A-GGTCT-3′ (forward) and 5′-[…]-CTCT-3′(reverse), and the primer for β-actin was 5′-TGTTAC-CAACTGGGACGACA-3′ (forward) and 5′-CTGGGTCATCTT-TTCACCGT-3′ (reverse). After amplification, PCR products were subjected to 1% agarose gel electrophoresis, and visualized by ethidium bromide staining. The relative density of bands was analyzed under ultraviolet light (Bio-Rad). Experiments were repeated three times for reproducibility.

The subject of another data set is 3-nitrotyrosine. Briefly: Nitrotyrosine-adducted proteins in isolated brain mitochondria (slot blot). Particulars: 3 hours after ADR 20 mg/kg, hydrochloride. It counts as in vivo, mouse. The method, then:
3-Nitrotyrosine levels, a peroxynitrite reaction product marker, were determined as described previously (Lauderback et al. 2001). Briefly, 5 μg isolated mitochondrial proteins were incubated with Laemmli sample buffer (0.125 M Trisma base, pH 6.8, 4% SDS, 20% glycerol) for 20 minutes, and then 250 ng protein were blotted onto the nitrocellulose membrane using a slot-blot apparatus. The membrane was rinsed with TBST buffer, blocked by incubation in the presence of 5% BSA, followed by incubation with rabbit polyclonal anti-nitrotyrosine antibody as primary antibody for 1 h. The membranes were washed with TBST buffer and further incubated with goat anti-rabbit horseradish peroxidase-conjugated secondary antibody for 1 h. After incubation with secondary antibody, the membrane was washed twice with TBST and once in TBS (TBS without 0.05% Tween-20). Immunoreactivities of the protein bands were detected by ECL (Amersham Phamacia Biotech) as described by the manufacturer. Blots were scanned with Adobe Photoshop and quantified by the densitometry method (Bio-Rad).

For data set [3] the following is noted: seventy-two hours after a single intraperitoneal injection of ADR; cited from earlier work.
The conditions of data set [4]: in vivo; cited from earlier work.
In data set [5] the test system is mitochondrial respiration complex I. Briefly: Brain mitochondrial respiration, complex I (pyruvate + malate), respiration control ratio. Particulars: 3 hours after treatment, hydrochloride.
Protocol: Mice were perfused via cardiac puncture with cold mitochondrial isolation buffer, the brain promptly removed, the cerebellum dissected away, and mitochondria immediately isolated from the freshly brain by a modification of the method described by Mattiazzi et al. (2002). Brain mitochondria were isolated in cold mitochondrial isolation buffer, containing 0.07 M sucrose, 0.22 M mannitol, 20 mM HEPES, 1 mM EGTA, and 1% bovine serum albumin, pH 7.2. Tissues were homogenized with a Dounce homogenizer and centrifuged at 1,500×g at 4° C. for 5 minutes before transferring the supernatant. The pellets were resuspended and centrifuged at 1,500×g at 4° C. for 5 minutes. The supernatants were combined and centrifuged at 13,500×g at 4° C. for 10 minutes. Mitochondrial pellets were washed twice and finally resuspended in 50-100 μL cold isolation buffer. Protein concentration of isolated mitochondria was determined by the Bradford assay (Bradford, 1976). The final protein concentration was 20-40 mg/ml.
Mitochondrial respiration was determined using Clark-type polarographic oxygen sensors (Hansatech Instruments, Kings Lynn, Norfolk, UK) to measure the rate of oxygen consumption. Freshly isolated mitochondria were suspended in respiration buffer at a concentration of 0.5 mg mitochondrial protein per mL of respiration buffer, which consists of 0.25 M sucrose, 50 mM HEPES, 1 mM EGTA, 10 mM KH2PO4, and 2 mM MgCl2, pH 7.4. Oxygen consumption was measured with either pyruvate (10 mM) plus malate (10 mM) or succinate (10 mM) as substrates for respiration from complex I or complex II in the absence of exogenous ADP (state II) and after addition of 300 mM ADP (state III respiration). Rotenone (5 μM) was added to the reaction to inhibit respiration from complex I when succinate was used as the substrate. […] FCCP (1 μM), an uncoupling agent, was added as a control of respiration. Respiration control ratios (RCR) were calculated as the ratios of state III and state II respiration as described previously by Estabrook (1967). The unit for state II rate and state III rate is nmole/min/mg protein.
Mice were perfused via cardiac puncture with cold mitochondrial isolation buffer, the brain promptly removed, the cerebellum dissected away, and mitochondria immediately isolated from the freshly brain by a modification of the method described by Mattiazzi et al. (2002). Brain mitochondria were isolated in cold mitochondrial isolation buffer, containing 0.07 M sucrose, 0.22 M mannitol, 20 mM HEPES, 1 mM EGTA, and 1% bovine serum albumin, pH 7.2. Tissues were homogenized with a Dounce homogenizer and centrifuged at 1,500×g at 4° C. for 3 minutes before transferring the supernatant fluid. The pellets were resuspended and centrifuged at 1,500×g at 4° C. for 3 minutes. The supernatant fluids were combined and centrifuged at 1,500×g at 4° C. for 3 minutes. These supernatant fluids were then centrifuged at 13,500×g at 4° C. for 10 minutes. Mitochondrial pellets were washed twice and finally resuspended in 50-100 μL cold isolation buffer. Protein concentration of isolated mitochondria was determined by the Bradford assay (Bradford, 1976).
Mitochondrial respiration was determined using Clark-type polarographic oxygen sensors (Hansatech Instruments, UK) to measure the rate of oxygen consumption. Freshly-isolated mitochondria were suspended in respiration buffer at a concentration of 0.5 mg mitochondrial protein/mL respiration buffer, which consisted of 0.25 M sucrose, 50 mM HEPES, 1 mM EGTA, 10 mM KH2PO4, 2 mM MgCl2 and 0.2% BSA, pH 7.4. Oxygen consumption was measured with either pyruvate (10 mM) or pyruvate plus malate (10 mM) as substrates for respiration from complex I, in the absence of exogenous ADP (state II), and after addition of 300 mM ADP (state III respiration). […] FCCP (1 μM), an uncoupling agent, was added as a control respiration. Respiration control ratios (RCR) were calculated as the ratios of state III and state II respiration.

`COc1cccc2c1C(=O)c1c(O)c3c(c(O)c1C2=O)C[C@@](O)(C(=O)CO)C[C@@H]3O[C@H]1C[C@H](N)[C@H](O)[C@H](C)O1` [ADR, Doxorubicin hydrochloride]: in data set [1], the “ADR orange-red fluorescence in areas outside the blood brain barrier (choroid plexus)” value is listed as “observed in several areas outside the blood brain barrier, including the choroid plexus; also recorded: apparent in the choroid plexus”; the “ADR orange-red fluorescence in cortex and hippocampus” value was “not observed in cortex and hippocampus; also recorded: not detected”. For the same compound, the “Time course of increased serum TNF α” value with TNF α (20 mg/kg ADR, blood at 1, 3, 6, 9, 24 hours, hydrochloride) is “detectable as early as 1 hour and were sustained throughout a 24 hour period; also recorded: increased at the earliest time point examined”. Moreover, the “TNF-α level in serum (circulating TNF-α)” value in the data set on TNF α (iNOSKO mice, 3 hours after treatment) is recorded as “significantly elevated”. The “TNF α level in serum (circulating TNF α)” value with TNF α (wild-type mice, 3 hours after single i.p. treatment, vs saline control, hydrochloride) is recorded as “significantly higher; also recorded: significantly elevated”. The “Brain mitochondrial respiration complex II” value in data set [2] is “no effect”. The “iNOS mRNA levels in brain tissues” value in the data set on iNOS mRNA is “significantly increased”. Also, the “Tyrosine-nitrated proteins in brain mitochondria” value in the data set on 3-nitrotyrosine (iNOSKO mice) is “no difference with controls”. The “Tyrosine-nitrated proteins in brain mitochondria” value with 3-nitrotyrosine (wild-type mice) is “significantly increased protein nitration”. Also, the “Levels of protein oxidation and lipid peroxidation in brain tissues” value in data set [3] is on record as “significant increase”. Besides, the “Crossing of the blood brain barrier” value in data set [4] is on record as “does not cross the blood brain barrier”. In addition, in data set [5] (iNOSKO mice), the “Brain mitochondrial respiration complex I (RCR)” value is reported as “no effect; also recorded: not in iNOSKO mice”. Further, the “Brain mitochondrial respiration complex I (RCR, state III / state II)” value in data set [5] (wild-type mice, vs saline control) is listed as “significantly decreased; also recorded: decline”.
